PubChem BioAssay (NCI)
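Dose response: 5 concentrations. Exposure: 48 h. Format: 96-well plates. Endpoint: linear interpolation; highest concentration if not reached. TGI is the concentration that stops growth completely.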

What was measured:
Experiment in all cases: NCI-60 cell line screen, 48 h
786-0 renal = tested on: 786-0 renal
HCT-116 colon = tested on: HCT-116 colon
SK-MEL-2 melanoma = tested on: SK-MEL-2 melanoma
MDA-N = tested on: MDA-N
OVCAR-5 ovarian = tested on: OVCAR-5 ovarian
OVCAR-8 ovarian = tested on: OVCAR-8 ovarian
SK-OV-3 ovarian = tested on: SK-OV-3 ovarian
NCI/ADR-RES ovarian = tested on: NCI/ADR-RES ovarian
SK-MEL-28 melanoma = tested on: SK-MEL-28 melanoma
UACC-257 melanoma = tested on: UACC-257 melanoma
RXF 393 renal = tested on: RXF 393 renal
MCF7 breast = tested on: MCF7 breast
COLO 205 colon = tested on: COLO 205 colon
SF-539 CNS = tested on: SF-539 CNS
HS 578T breast = tested on: HS 578T breast
SR leukemia = tested on: SR leukemia

SMILES	TGI (786-0 renal)	TGI (HCT-116 colon)	TGI (SK-MEL-2 melanoma)	TGI (MDA-N)	TGI (OVCAR-5 ovarian)	TGI (OVCAR-8 ovarian)	TGI (SK-OV-3 ovarian)	TGI (NCI/ADR-RES ovarian)	TGI (SK-MEL-28 melanoma)	TGI (UACC-257 melanoma)	TGI (RXF 393 renal)	TGI (MCF7 breast)	TGI (COLO 205 colon)	TGI (SF-539 CNS)	TGI (HS 578T breast)	TGI (SR leukemia)
O=C(O)c1ccccc1C(=O)Nn1cnnc1	> 100 µM	> 100 µM	> 100 µM	> 100 µM	> 100 µM	> 100 µM	> 100 µM	> 100 µM	> 100 µM	> 100 µM	> 100 µM	> 100 µM	> 100 µM	> 100 µM	–	–
COc1cc(NP(=O)(Oc2ccccc2)Oc2ccccc2)ccc1Nc1c2ccccc2nc2c1[nH]c1ccccc12	1.58 µM	63.8 µM	22.6 µM	15.4 µM	30.2 µM	–	20.9 µM	20.9 µM	48.2 µM	> 48.5 µM	14.1 µM	25.7 µM	> 43 µM	–	98.1 µM	–
COc1ccc(NC(C)=O)cc1C1CCC(=O)N1 (centres undefined)	> 100 µM	> 100 µM	> 100 µM	–	> 100 µM	> 100 µM	> 100 µM	> 100 µM	> 100 µM	> 100 µM	–	> 100 µM	> 100 µM	> 100 µM	> 100 µM	–
O=c1oc2ccccc2c(O)c1C(c1ccc(/C=C/c2ccccc2)cc1)c1c(O)c2ccccc2oc1=O	63.8 µM	> 100 µM	> 100 µM	43.9 µM	–	43.8 µM	–	60.3 µM	86.9 µM	> 100 µM	–	–	71.8 µM	–	75.4 µM	–
CC(=O)N(CCc1ccccc1)C(C#N)c1ccc(OCCCCCCCCCCOc2ccc(C(C#N)N(CCc3ccccc3)C(C)=O)cc2)cc1 (centres undefined)	50 µM	> 100 µM	> 100 µM	> 100 µM	> 100 µM	> 100 µM	> 100 µM	> 100 µM	> 100 µM	> 100 µM	63.2 µM	> 100 µM	> 100 µM	> 100 µM	56.1 µM	–
COc1cc(NCc2ccc3nc(OC)c(OC)nc3c2)cc(OC)c1OC	> 100 µM	> 100 µM	> 100 µM	> 100 µM	> 100 µM	> 100 µM	> 100 µM	> 100 µM	> 100 µM	> 100 µM	> 100 µM	> 100 µM	> 100 µM	> 100 µM	–	> 100 µM
CC/C=C/C(=O)CC(O)(C(F)(F)F)C(F)(F)F	> 100 µM	> 100 µM	–	–	> 100 µM	> 100 µM	> 100 µM	> 100 µM	> 100 µM	> 100 µM	> 100 µM	> 100 µM	> 100 µM	> 100 µM	> 100 µM	> 100 µM
CC1=NN(c2nc(N)nc(CSCc3nc(N)nc(N(C)C)n3)n2)C(C)(C)C1	> 100 µM	> 100 µM	> 100 µM	–	> 100 µM	> 100 µM	> 100 µM	> 100 µM	> 100 µM	> 100 µM	> 100 µM	> 100 µM	> 100 µM	> 100 µM	> 100 µM	> 100 µM
CC1=C(C(=O)NCCc2ccccc2)CC(C(=O)NCCc2ccccc2)=C(C)N1	> 100 µM	> 100 µM	> 100 µM	–	> 100 µM	> 100 µM	> 100 µM	> 100 µM	–	> 100 µM	> 100 µM	> 100 µM	> 100 µM	> 100 µM	> 100 µM	–
CN(C(=O)Cc1ccc(Cl)c(Cl)c1)[C@@H]1CCCC[C@H]1[N+]1(C)CC=CC1	> 100 µM	> 100 µM	> 100 µM	> 100 µM	> 100 µM	> 100 µM	> 100 µM	> 100 µM	> 100 µM	> 100 µM	> 100 µM	> 100 µM	> 100 µM	–	–	> 100 µM
N#CC(Nc1ccccc1)c1ccc(C(C#N)Nc2ccccc2)cc1 (centres undefined)	> 100 µM	> 100 µM	> 100 µM	> 100 µM	> 100 µM	> 100 µM	> 100 µM	> 100 µM	> 100 µM	> 100 µM	> 100 µM	> 100 µM	> 100 µM	69 µM	> 100 µM	–
O=C(O)c1ccc(Nc2nc3ccccc3nc2-c2cccs2)cc1	> 100 µM	> 100 µM	–	> 100 µM	> 100 µM	> 100 µM	> 100 µM	> 100 µM	> 100 µM	> 100 µM	> 100 µM	–	> 100 µM	> 100 µM	> 100 µM	> 100 µM
O=C(c1ccco1)N(C(=S)N1CCN(c2ccccn2)CC1)C1CCCCC1	> 100 µM	> 100 µM	> 100 µM	–	> 100 µM	> 100 µM	> 100 µM	–	> 100 µM	> 100 µM	> 100 µM	–	> 100 µM	> 100 µM	–	> 100 µM
CNn1c(C)n[nH]c1=O	> 100 µM	> 100 µM	> 100 µM	–	> 100 µM	> 100 µM	> 100 µM	> 100 µM	> 100 µM	> 100 µM	–	> 100 µM	> 100 µM	> 100 µM	> 100 µM	> 100 µM
O=C1c2ccccc2-c2ccc(N=Nc3c(O)ccc4ccccc34)cc21	> 100 µM	> 100 µM	> 100 µM	> 100 µM	> 100 µM	> 100 µM	> 100 µM	> 100 µM	> 100 µM	> 100 µM	> 100 µM	–	> 100 µM	–	> 100 µM	–
Cc1cccc(C)c1NC(=S)NC=C(C(N)=O)C(N)=O	> 100 µM	> 100 µM	> 100 µM	> 100 µM	> 100 µM	> 100 µM	> 100 µM	> 100 µM	> 100 µM	> 100 µM	> 100 µM	> 100 µM	> 100 µM	> 100 µM	> 100 µM	–
